Laboratory results taken from article PMC5322520, “TubZ filament assembly dynamics requires the flexible C-terminal tail” (Scientific Reports, 2017).

How the values were obtained:
CbTubZ316 = target: T1, CbTubZ316 (Clostridium phage c-st, UniProt Q331T7); conditions: nucleotide-binding pocket; crystals at pH 5.5, 22 °C
T1 construct: gene tubZ

BtTubZ = target: T2, BtTubZ (Bacillus thuringiensis, UniProt Q8KNP3); experiment: HPLC of polymer-bound nucleotide; assay type: biochemical
T2 construct: gene tubZ; construct not described in main text; filaments
T2 sequence (Q8KNP3 whole entry): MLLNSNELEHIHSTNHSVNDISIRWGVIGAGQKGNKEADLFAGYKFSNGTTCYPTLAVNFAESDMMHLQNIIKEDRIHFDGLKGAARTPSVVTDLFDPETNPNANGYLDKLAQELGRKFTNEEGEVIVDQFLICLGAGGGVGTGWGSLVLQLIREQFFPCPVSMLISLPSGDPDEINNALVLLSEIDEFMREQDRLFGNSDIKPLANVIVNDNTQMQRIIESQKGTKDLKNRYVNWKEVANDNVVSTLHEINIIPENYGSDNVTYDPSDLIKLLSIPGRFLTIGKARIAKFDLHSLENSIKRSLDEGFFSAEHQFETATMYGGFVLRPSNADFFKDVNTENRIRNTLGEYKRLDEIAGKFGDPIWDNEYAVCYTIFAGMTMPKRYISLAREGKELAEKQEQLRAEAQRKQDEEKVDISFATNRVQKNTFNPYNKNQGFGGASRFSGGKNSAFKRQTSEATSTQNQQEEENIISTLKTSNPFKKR

T1 sequence (Q331T7 1-316 limits assumed): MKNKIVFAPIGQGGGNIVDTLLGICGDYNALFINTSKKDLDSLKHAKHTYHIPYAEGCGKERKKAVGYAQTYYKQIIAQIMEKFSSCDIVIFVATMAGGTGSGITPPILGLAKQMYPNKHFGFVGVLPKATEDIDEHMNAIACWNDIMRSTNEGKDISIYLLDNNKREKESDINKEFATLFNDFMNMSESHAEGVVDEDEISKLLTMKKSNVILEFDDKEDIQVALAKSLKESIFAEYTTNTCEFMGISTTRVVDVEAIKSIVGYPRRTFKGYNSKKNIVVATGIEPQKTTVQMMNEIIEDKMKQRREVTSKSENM

SMILES: Nc1nc2c(ncn2[C@@H]2O[C@H](COP(=O)(O)OP(=O)(O)O)[C@@H](O)[C@H]2O)c(=O)[nH]1 [GDP]
- X-ray crystal structure, 2.4 Å (CbTubZ316): TubZ316 displays GDP at the nucleotide-binding pocket

SMILES: Nc1nc2c(ncn2[C@@H]2O[C@H](COP(=O)(O)OP(=O)(O)OP(O)(O)=S)[C@@H](O)[C@H]2O)c(=O)[nH]1 [GTP-γ-S]
- HPLC of polymer-bound nucleotide (BtTubZ; filaments assembled with GTP-γ-S): nucleotide content of BtTubZ filaments assembled with GTP- γ-S and GTP

SMILES: Nc1nc2c(ncn2[C@@H]2O[C@H](COP(=O)(O)OP(=O)(O)OP(=O)(O)O)[C@@H](O)[C@H]2O)c(=O)[nH]1 [GTP]
- HPLC of polymer-bound nucleotide (BtTubZ; filaments assembled with GTP): nucleotide content of BtTubZ filaments assembled with GTP- γ-S and GTP
